From ChEMBL document CHEMBL1201862, “PubChem BioAssay data set” (2004)
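A five-concentration, 48-hour dose response in 96-well plates underlies each endpoint, interpolated linearly between surrounding concentrations. The concentration for 50% growth inhibition is given as GI50.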 Calls of active or inactive are those of the source. No stated cut-off is given here; in the data, active = GI50 up to about 1.1 µM and inactive = higher.

Tests used:
Experiment in all cases: NCI anticancer screen, dose series, 48 h
[1] = system: BT-549
[2] = system: SN12C
[3] = system: SF-295
[4] = system: SF-268
[5] = system: OVCAR-8
[6] = system: UACC-257
[7] = system: PC-3
[8] = system: IGROV-1
[9] = system: UO-31
[10] = system: SNB-75
[11] = system: NCI-H23
[12] = system: HT-29
[13] = system: OVCAR-5
[14] = system: NCI-H522
[15] = system: TK-10
[16] = system: SK-OV-3
[17] = system: SR
[18] = system: CAKI-1
[19] = system: HL-60
[20] = system: HCC 2998
[21] = system: MOLT-4
[22] = system: NCI-H460
[23] = system: ACHN
[24] = system: A549
[25] = system: SW-620
[26] = system: SK-MEL-28
[27] = system: NCI-H226
[28] = system: EKVX
[29] = system: KM12
[30] = system: U-251
[31] = system: DU-145
[32] = system: HOP-62
[33] = system: HCT-15
[34] = system: A498
[35] = system: COLO 205
[36] = system: UACC-62
[37] = system: 786-0
[38] = system: SNB-19
[39] = system: CCRF-CEM
[40] = system: OVCAR-4
[41] = system: NCI/ADR-RES
[42] = system: T47D
[43] = system: SF-539
[44] = system: OVCAR-3
[45] = system: HCT-116
[46] = system: Hs-578T
[47] = system: MDA-N
[48] = system: K562
[49] = system: SK-MEL-5
[50] = system: MDA-MB-231
[51] = system: MCF7
[52] = system: Malme-3M
[53] = system: SK-MEL-2
[54] = system: M14

For C[C@H](CSC(=O)c1ccccc1)C(=O)N1c2ccccc2C[C@H]1C(=O)O, the GI50 [1] was > 100 µM (inactive), the GI50 [2] was > 100 µM (inactive) and the GI50 [3] was > 100 µM (inactive). For the same molecule, the GI50 [4] was > 100 µM (inactive), the GI50 [5] was > 100 µM (inactive) and the GI50 [6] was > 100 µM (inactive). The GI50 [7] was > 100 µM (inactive), the GI50 [8] was > 100 µM (inactive) and the GI50 [9] was 86.3 µM (inactive). The GI50 [10] was 35.3 µM (inactive), the GI50 [11] was > 100 µM (inactive) and the GI50 [12] was 47.2 µM (inactive). For the same molecule, the GI50 [13] was > 100 µM (inactive), the GI50 [14] was 30.4 µM (inactive) and the GI50 [15] was > 100 µM (inactive). The GI50 [16] was > 100 µM (inactive), the GI50 [17] was 61.1 µM (inactive) and the GI50 [18] was > 100 µM (inactive). The GI50 [19] was 33.7 µM (inactive), the GI50 [20] was 91.8 µM (inactive) and the GI50 [21] was 75.7 µM (inactive). For the same molecule, the GI50 [22] was > 10 µM (inactive), the GI50 [23] was > 100 µM (inactive) and the GI50 [24] was > 100 µM (inactive). For the same molecule, the GI50 [25] was 35.2 µM (inactive), the GI50 [26] was > 100 µM (inactive) and the GI50 [27] was > 100 µM (inactive). The GI50 [28] was > 100 µM (inactive), the GI50 [29] was > 10 µM (inactive) and the GI50 [30] was > 100 µM (inactive). The GI50 [31] was > 100 µM (inactive), the GI50 [32] was > 100 µM (inactive) and the GI50 [33] was 30.5 µM. For the same molecule, the GI50 [34] was > 100 µM (inactive), the GI50 [35] was 63 µM (inactive) and the GI50 [36] was > 100 µM (inactive). The GI50 [37] was > 10 µM (inactive), the GI50 [38] was > 100 µM (inactive) and the GI50 [39] was 32.1 µM (inactive). For the same molecule, the GI50 [40] was > 100 µM (inactive), the GI50 [41] was 50.6 µM (inactive) and the GI50 [42] was > 100 µM (inactive). For the same molecule, the GI50 [43] was > 100 µM (inactive), the GI50 [44] was > 100 µM (inactive) and the GI50 [45] was 41.2 µM (inactive). The GI50 [46] was > 100 µM (inactive), the GI50 [47] was > 100 µM (inactive) and the GI50 [48] was 17.5 µM (inactive). The GI50 [49] was 67.8 µM (inactive), the GI50 [50] was > 100 µM (inactive) and the GI50 [51] was 46 µM (inactive).
In the case of CC1(C)CCc2c(cc3c(c2O)CCC(C)(C)O3)O1, the GI50 [1] is reported as > 100 µM (inactive), the GI50 [2] is reported as > 100 µM (inactive) and the GI50 [3] is reported as 96.8 µM (inactive). The GI50 [52] was 12.3 µM (inactive), the GI50 [4] was > 100 µM (inactive) and the GI50 [5] was > 100 µM (inactive). For the same molecule, the GI50 [6] was > 100 µM (inactive), the GI50 [7] was 49.3 µM (inactive) and the GI50 [8] was > 100 µM (inactive). The GI50 [9] was > 100 µM (inactive), the GI50 [10] was 80.5 µM (inactive) and the GI50 [11] was > 100 µM (inactive). The GI50 [12] was 35.8 µM (inactive), the GI50 [13] was > 100 µM (inactive) and the GI50 [14] was 61.1 µM (inactive). The GI50 [15] was > 100 µM (inactive), the GI50 [16] was > 100 µM (inactive) and the GI50 [17] was 76.6 µM (inactive). For the same molecule, the GI50 [18] was > 100 µM (inactive), the GI50 [19] was 27.3 µM (inactive) and the GI50 [20] was > 100 µM (inactive). For the same molecule, the GI50 [21] was 62.4 µM (inactive), the GI50 [22] was 57 µM (inactive) and the GI50 [23] was > 100 µM (inactive). The GI50 [24] was > 100 µM (inactive), the GI50 [25] was > 100 µM (inactive) and the GI50 [53] was 25.1 µM (inactive). For the same molecule, the GI50 [26] was > 100 µM (inactive), the GI50 [27] was > 100 µM (inactive) and the GI50 [28] was > 100 µM (inactive). For the same molecule, the GI50 [29] was > 100 µM (inactive), the GI50 [30] was > 100 µM (inactive) and the GI50 [31] was > 100 µM (inactive). The GI50 [32] was > 100 µM (inactive), the GI50 [33] was 64.7 µM and the GI50 [34] was > 100 µM (inactive). The GI50 [35] was > 100 µM (inactive), the GI50 [54] was > 100 µM (inactive) and the GI50 [36] was > 100 µM (inactive). The GI50 [37] was > 10 µM (inactive), the GI50 [38] was > 100 µM (inactive) and the GI50 [39] was 67.8 µM (inactive). The GI50 [40] was > 100 µM (inactive), the GI50 [41] was > 100 µM (inactive) and the GI50 [42] was 41.8 µM (inactive). For the same molecule, the GI50 [43] was > 100 µM (inactive), the GI50 [44] was > 100 µM (inactive) and the GI50 [45] was 61.2 µM (inactive). For the same molecule, the GI50 [46] was > 100 µM (inactive), the GI50 [47] was > 100 µM (inactive) and the GI50 [48] was 48.8 µM (inactive). The GI50 [49] was 62.8 µM (inactive), the GI50 [50] was > 100 µM (inactive) and the GI50 [51] was > 100 µM (inactive).
